The text below walks through data of ChEMBL document CHEMBL5370549, “Optimization and evaluation of pyridinyl vinyl sulfones as Nrf2 activator for the antioxidant and anti-inflammatory effects” (Eur J Med Chem, 2023).

Each structure is given as a SMILES string. Active and inactive are the calls of the source. No cut-off for these calls is given here.

Data set [1] is described as follows: Metabolic stability of the compound in mouse liver microsomes assessed as parent compound remaining measured after 30 mins. The class given is ADME, Microsome. The note with it: read-out: Stability. (Liver microsomes are a subcellular fraction often used to study metabolism.)
Data set [2] deals with Mus musculus. Description: Antiinflammatory activity against LPS-induced neuroinflammation C57BL/6N mouse model assessed as reduction of glial cell reactivity by measuring reduction in GFAP expression in cortex at 20 mg/kg/day, po administered for 3 days followed by LPS administration for 7 days by immunofluorescence staining based analysis. The data set is classed as functional, organism-based. The settings on record: time 10.0 day.

Data set [3] concerns Mus musculus. Nature of the data set: Antiinflammatory activity against LPS-induced neuroinflammation C57BL/6N mouse model assessed as reduction of glial cell reactivity by measuring reduction in IBA1 expression in cortex at 20 mg/kg/day, po administered for 3 days followed by LPS administration for 7 days by immunofluorescence staining based analysis. The data set is classed as functional, organism-based. The note with it: time 10.0 day.

Data set [4] has as its system Mus musculus. Description: Antiinflammatory activity against LPS-induced neuroinflammation C57BL/6N mouse model assessed as inhibition of TNF-alpha production in plasma at 20 mg/kg/day, po administered for 3 days followed by LPS administration for 7 days by ELISA. The class given is functional, organism-based. The settings on record: time 10.0 day. (An ELISA detects its analyte on a solid surface through an enzyme-linked reagent.)

The subject of data set [5] is Mus musculus. Description: Antiinflammatory activity against LPS-induced neuroinflammation C57BL/6N mouse model assessed as reduction of glial cell reactivity by measuring reduction in GFAP expression in dentate gyrus at 20 mg/kg/day, po administered for 3 days followed by LPS administration for 7 days by immunofluorescence staining based analysis. The data set is classed as functional, organism-based. The note with it: time 10.0 day.

For data set [6], the target named is T1, Nuclear factor erythroid 2-related factor 2 (Mus musculus) (UniProt Q60795).
T1 sequence (whole entry): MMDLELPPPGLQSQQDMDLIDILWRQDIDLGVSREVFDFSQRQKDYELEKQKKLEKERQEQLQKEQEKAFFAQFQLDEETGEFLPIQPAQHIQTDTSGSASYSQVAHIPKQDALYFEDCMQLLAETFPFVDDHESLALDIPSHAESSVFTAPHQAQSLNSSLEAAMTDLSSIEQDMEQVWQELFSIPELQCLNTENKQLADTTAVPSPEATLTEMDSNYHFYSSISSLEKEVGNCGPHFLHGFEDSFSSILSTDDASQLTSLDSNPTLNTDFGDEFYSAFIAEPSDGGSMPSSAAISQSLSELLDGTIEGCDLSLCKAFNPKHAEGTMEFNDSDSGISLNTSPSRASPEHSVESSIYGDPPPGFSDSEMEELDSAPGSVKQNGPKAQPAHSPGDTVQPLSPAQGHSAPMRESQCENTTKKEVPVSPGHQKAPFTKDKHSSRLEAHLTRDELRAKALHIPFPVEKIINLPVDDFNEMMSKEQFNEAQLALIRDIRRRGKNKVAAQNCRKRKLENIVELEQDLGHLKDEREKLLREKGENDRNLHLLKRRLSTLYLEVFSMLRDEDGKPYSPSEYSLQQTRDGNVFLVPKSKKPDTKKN
Nature of the data set: Activation of Nrf2 in mouse BV-2 cells assessed as increase in HO-1 protein expression at 3 uM measured after 9 hrs by immunoblot analysis. The data set is classed as cell-based. The settings on record: filed as activator. For orientation: A western blot detects proteins with antibodies after separation by electrophoresis.

For data set [7], the system named is Mus musculus. Description: Antiinflammatory activity against LPS-induced neuroinflammation C57BL/6N mouse model assessed as inhibition of IL-6 production in plasma at 20 mg/kg/day, po administered for 3 days followed by LPS administration for 7 days by ELISA. The data set is classed as functional, organism-based. The settings on record: time 10.0 day.
Data set [8] concerns Mus musculus. Nature of the data set: Antiinflammatory activity against LPS-induced neuroinflammation C57BL/6N mouse model assessed as reduction of glial cell reactivity by measuring reduction in IBA1 expression in hippocampus CA3 region at 20 mg/kg/day, po administered for 3 days followed by LPS administration for 7 days by immunofluorescence staining based analysis. The class given is functional, organism-based. The note with it: time 10.0 day.

For data set [9], the target named is T1, Nuclear factor erythroid 2-related factor 2 (Mus musculus). Description: Activation of Nrf2 in mouse BV-2 cells assessed as increase in Nrf2 level in whole cell lysates at 3 uM measured after 3 hrs by immunoblot analysis. The settings on record: filed as activator. The data set is classed as subcellular.
Data set [10] shares this target. Nature of the data set: Activation of Nrf2 in mouse BV-2 cells assessed as increase in Nrf2 nuclear translocation at 3 uM measured upto 9 hrs by immunoblot analysis relative to control. The data set is classed as subcellular. The settings on record: Nucleus.
Data set [11] can be described thus: Metabolic stability of the compound in rat plasma assessed as parent compound remaining measured after 30 mins. The class given is ADME, cell-free. The note with it: read-out: Stability.
Data set [12] concerns BV-2. Nature of the data set: Cytotoxicity against mouse BV-2 cells assessed as effect on cell viability upto 3 uM incubated for 24 hrs by WST assay. The data set is classed as toxicity, cell-based. The settings on record: bv-2, 24 h.
Data set [13] in a line: Metabolic stability of the compound in human liver microsomes assessed as parent compound remaining measured after 30 mins. The class given is ADME, Microsome. The note with it: read-out: Stability.
In data set [14] the test system is BV-2. Description: Antiinflammatory activity against LPS-induced mouse BV-2 cells assessed as inhibition of IL-1 beta mRNA expression at 0.1 to 3 uM pretreated for 6 hrs followed by LPS stimulation for 6 hrs by qRT-PCR analysis. The class given is functional, cell-based. The note with it: dose 0.1-3 µM, time 12.0 hrs.
The subject of data set [15] is BV-2. Description: Antiinflammatory activity against LPS-induced mouse BV-2 cells assessed as inhibition of NOS2 mRNA expression at 0.1 to 3 uM pretreated for 6 hrs followed by LPS stimulation for 6 hrs by qRT-PCR analysis. The class given is functional, cell-based. The settings on record: dose 0.1-3 µM, time 12.0 hrs.
Data set [16] relates to BV-2. Nature of the data set: Antiinflammatory activity against LPS-induced mouse BV-2 cells assessed as inhibition of NO production at 0.001 to 1 uM pretreated for 6 hrs followed by LPS stimulation for 24 hrs by Griess assay. The data set is classed as functional, cell-based. The settings on record: dose 0.001-1 µM, time 30.0 hrs.
The subject of data set [17] is Mus musculus. Nature of the data set: Antiinflammatory activity against LPS-induced neuroinflammation C57BL/6N mouse model assessed as reduction of glial cell reactivity by measuring reduction in IBA1 expression in hippocampus CA1 region at 20 mg/kg/day, po administered for 3 days followed by LPS administration for 7 days by immunofluorescence staining based analysis. The class given is functional, organism-based. The settings on record: time 10.0 day.

The subject of data set [18] is Mus musculus. Description: Antiinflammatory activity against LPS-induced neuroinflammation C57BL/6N mouse model assessed as reduction of glial cell reactivity by measuring reduction in IBA1 expression in dentate gyrus at 20 mg/kg/day, po administered for 3 days followed by LPS administration for 7 days by immunofluorescence staining based analysis. The settings on record: time 10.0 day. The class given is functional, organism-based.

Data set [19] has as its target T1, Nuclear factor erythroid 2-related factor 2 (Mus musculus). Description: Activation of Nrf2 in mouse BV-2 cells assessed as increase in HO-1 mRNA expression incubated for 3 hrs by qRT-PCR analysis. The note with it: filed as activator, dose 0.01-3 µM. The data set is classed as cell-based.

For `COc1cccnc1S(=O)(=O)/C=C/c1ncccc1Cl`, the remaining at 0.5 h in data set [1] amounted to 61%; in [11] it was 74.4%; in data set [13], 94.1%. Further, the result (with Mus musculus [2]; in the data set with Mus musculus [3]; in the data set on Mus musculus [4]; in the data set with Mus musculus [5]; in data set [6]; with Mus musculus [7]) was Active. Besides, the result (with Mus musculus [8]; in data set [9]; with BV-2 [14]; in the data set with BV-2 [15]; in the data set with BV-2 [16]; in the data set on Mus musculus [17]) was Active. Also, in the data set with Mus musculus [18], the result was Active. The fold change (FC) in data set [10] is greater than 7. Also, the results for the Activity result (in the data set on BV-2 [12]; in [19]) were “Non-Toxic” and “Dose-Dependent Effect”, respectively.
